According to patent publication US20220145264A1, “CULTURE MEDIUM FOR MAMMALIAN EXPANDED POTENTIAL STEM CELLS, COMPOSITION, AND METHODS THEREOF” (THE UNIVERSITY OF HONG KONG, priority 2019, published 2022):

What was measured:
pEPSCs^Emb = experiment: Requirement of individual culture components for pEPSCs (RT-qPCR, AP+ colony formation); assay type: cell-based, porcine
Protocol: Porcine and human EPSC cultures were routinely maintained on STO feeders. STO feeder plates were prepared 3-4 days before passaging by thawing and plating the mitomycin C inactivated STO cells on 0.1% gelatinised plates at the density of ˜1.1×10^4 cells/cm^2. Porcine/human EPSC cells were maintained on STO feeder layers and enzymatically passaged every 3-5 days by a brief PBS wash followed by treatment for 3-5 minutes with 0.25% trypsin/EDTA (Gibco, Cat. No. 25500-054). The cells were dissociated and centrifuged (300 g×5 minutes) in M10 medium. M10: knockout DMEM (Gibco, Cat. No. 10829-018), 10% FBS (Gibco, Cat. No. 10270), 1× Glutamine Penicillin-Streptomycin (Thermo Fisher Scientific, Cat. No. 11140050) and 1×NEAA (Thermo Fisher Scientific, Cat. No. 10378-016). After removing supernatant, the porcine/human EPSCs were re-suspended and seeded in pEPSCM/hEPSCM supplemented with 5 μM ROCK inhibitor Y-27632 (Tocris, Cat. No. 1254). 5% FBS (Gibco, Cat. No. 10270) and 10% KnockOut Serum Replacement (KSR) (Gibco, Cat. No. 10828028) were added in pEPSCM and hEPSCM respectively to improve cells survive. 12-24 hours later, medium was switched to pEPSCM/hEPSCM only. Both pEPSCM and hEPSCM are N2B27 based media. N2B27 basal media (500 ml) was prepared by inclusion of the following components: 482.5 ml DMEM/F-12 (Gibco, Cat. No. 21331-020), 2.5 ml N2 supplement (Thermo Fisher Scientific, Cat. No. 17502048), 5 ml B27 supplement (Thermo Fisher Scientific, Cat. No. 17504044), 5 ml 1× Glutamine Penicillin-Streptomycin (Thermo Fisher Scientific, Cat. No. 11140-050), and 5 ml 1×NEAA (Thermo Fisher Scientific, Cat. No. 10378-016), 0.1 mM 2-mercaptoethanol (Sigma, Cat. No. M6250). pEPSCM (500 ml) was generated by adding the following small molecules and cytokines into 500 ml N2B27 basal media: 0.2 μM CHIR99021(GSK3i, TOCRIS, Cat. No. 4423), 1 μM WH-4-023 (SRC inhibitor, TOCRIS, Cat. No. 5413), 2.5 μM XAV939 (Sigma, Cat. No. X3004) or 2.5 μM IWR-1 (TOCRIS, Cat. No. 3532), […] Vitamin C (Sigma, Cat. No. 49752-100G), 10 ng/ml LIF (Stem Cell Institute, University of Cambridge. SCI) and 20 ng/ml ACTIVIN (SCI). hEPSCM (500 ml) was generated by adding the following components into 500 ml N2B27 basal media: 1.0 μM CHIR99021(GSK3 inhibitor, TOCRIS, Cat. No. 4423), 0.5 μM A-419259 (SRC inhibitor, TOCRIS, Cat. No. 3914), 2.5 μM XAV939 (Sigma, Cat. No. X3004), […] Vitamin C (Sigma, Cat. No. 49752-100G), 10 ng/ml LIF (SCI). Although both targeting SRC family kinases (SFKs), WH-4-023 and A419259 were preferred for porcine and human EPSCs, respectively. […] The concentrations of CHIR99021 for porcine and human EPSC cultures are 0.2 μM and 1.0 μM, respectively. […] 0.25 μM SB 590885 (BRAF inhibitor, R&D, Cat. No. 2650) and 2.0 μM SP600125 ([…], TOCRIS, Cat. No. 1496) were included to improve porcine and human EPSC cultures, but they were not essential for the routine maintenance of porcine and human EPSCs. All cell cultures in this paper were performed under conditions of 37° C. and 5% CO2 unless stated otherwise.
Total RNA was isolated using an RNeasy Mini Kit (Qiagen, Cat. No. 74106) for cultured cells or RNeasy Micro Kit (Qiagen, Cat. No. 74034) for sorted NANOS3-mCherry^+ cells. RNA was subsequently quantified and treated with gDNA WipeOut to remove genomic DNA. Complementary DNA (cDNA) was prepared using a QuantiTect Reverse Transcription Kit (Qiagen, Cat. No. 205311). RT-qPCR primers or TaqMan Gene Expression Assays (Life Technologies) are listed in Supplementary Table 10 and 11. ABsolute Blue qPCR ROX Mix (ABgene, Cat. No. AB4138B) were used for probe based qPCR assays and SYBR Green ROX qPCR Mastermix (Qiagen, Cat. No. 330523) were used for primer based qPCR assays. All qPCR reactions were performed on ABI 7900 HT Sequence Detection System (Life Technologies). Information on all primers and probes used for qPCR analysis are provided in Supplementary Table 10 and 11. Gene expression was determined relative to GAPDH using the […]. […]

[1] = test system: NANOS3-Tdtomato reporter EPSCs; experiment: Differentiation to PGCLCs from NANOS3-Tdtomato reporter EPSCs (FACS); assay type: cell-based, human; conditions: 5.0 ng/ml supplemented in hEPSCM
Protocol: For human PGCLCs, the PGC differentiation potential of two hEPSC lines are tested with the sequential induction method. Human pre-mesoderm (pre-ME) was first induced in pre-ME media (Advanced RPMI 1640 Medium, 1% B27 supplement, 1×NEAA and 1× glutamine penicillin-streptomycin supplemented with 100 ng/ml Activin A (SCI), 3 μM CHIR99021 and 10 μM of ROCKi Y-27632) for 12 hours. Pre-ME were trypsinized into single cells and seeded into Corning Costar Ultra-Low attachment multi well 96-well plates (Corning, Cat. No. 7007) 4,000-5,000 cells per well in the […] PGCLC medium which was used for porcine PGCLC induction. To improve the cell aggregation, in all PGCLC induction experiments, 0.25% (v/v) poly-vinyl alcohol (Sigma, Cat. No. 341584) are added in the basal medium.

Row | Compound | pEPSC survival as measured by colony formation in serial passaging (pEPSCs^Emb; 0.1 μM added to pEPSCM) | cell survival and pluripotency factor expression (pEPSCs^Emb; removing ACTIVIN A from pEPSCM) | NANOS3-tdTomato+ PGCLCs generated [1]
1 | O=C(NOC[C@H](O)CO)c1ccc(F)c(F)c1Nc1ccc(I)cc1F [PD0325901] | decreased pEPSC survival |  | 
2 | ACTIVIN A: Human Recombinant ACTIVIN A cytokine |  | massive cell loss and down-regulation of pluripotency factors | more and substantially increased
